The assay concerns the target ATP-binding cassette sub-family C member 11 (Homo sapiens) (UniProt Q96J66). Nature of the assay: TP_TRANSPORTER: transport into inside-out membrane vesicles in membrane vesicle from MRP8-2-expressing LLC-PK1 cells. It counts as functional, cell membranes.

ATP-binding cassette sub-family C member 11 (Homo sapiens), sequence (Q96J66 whole entry): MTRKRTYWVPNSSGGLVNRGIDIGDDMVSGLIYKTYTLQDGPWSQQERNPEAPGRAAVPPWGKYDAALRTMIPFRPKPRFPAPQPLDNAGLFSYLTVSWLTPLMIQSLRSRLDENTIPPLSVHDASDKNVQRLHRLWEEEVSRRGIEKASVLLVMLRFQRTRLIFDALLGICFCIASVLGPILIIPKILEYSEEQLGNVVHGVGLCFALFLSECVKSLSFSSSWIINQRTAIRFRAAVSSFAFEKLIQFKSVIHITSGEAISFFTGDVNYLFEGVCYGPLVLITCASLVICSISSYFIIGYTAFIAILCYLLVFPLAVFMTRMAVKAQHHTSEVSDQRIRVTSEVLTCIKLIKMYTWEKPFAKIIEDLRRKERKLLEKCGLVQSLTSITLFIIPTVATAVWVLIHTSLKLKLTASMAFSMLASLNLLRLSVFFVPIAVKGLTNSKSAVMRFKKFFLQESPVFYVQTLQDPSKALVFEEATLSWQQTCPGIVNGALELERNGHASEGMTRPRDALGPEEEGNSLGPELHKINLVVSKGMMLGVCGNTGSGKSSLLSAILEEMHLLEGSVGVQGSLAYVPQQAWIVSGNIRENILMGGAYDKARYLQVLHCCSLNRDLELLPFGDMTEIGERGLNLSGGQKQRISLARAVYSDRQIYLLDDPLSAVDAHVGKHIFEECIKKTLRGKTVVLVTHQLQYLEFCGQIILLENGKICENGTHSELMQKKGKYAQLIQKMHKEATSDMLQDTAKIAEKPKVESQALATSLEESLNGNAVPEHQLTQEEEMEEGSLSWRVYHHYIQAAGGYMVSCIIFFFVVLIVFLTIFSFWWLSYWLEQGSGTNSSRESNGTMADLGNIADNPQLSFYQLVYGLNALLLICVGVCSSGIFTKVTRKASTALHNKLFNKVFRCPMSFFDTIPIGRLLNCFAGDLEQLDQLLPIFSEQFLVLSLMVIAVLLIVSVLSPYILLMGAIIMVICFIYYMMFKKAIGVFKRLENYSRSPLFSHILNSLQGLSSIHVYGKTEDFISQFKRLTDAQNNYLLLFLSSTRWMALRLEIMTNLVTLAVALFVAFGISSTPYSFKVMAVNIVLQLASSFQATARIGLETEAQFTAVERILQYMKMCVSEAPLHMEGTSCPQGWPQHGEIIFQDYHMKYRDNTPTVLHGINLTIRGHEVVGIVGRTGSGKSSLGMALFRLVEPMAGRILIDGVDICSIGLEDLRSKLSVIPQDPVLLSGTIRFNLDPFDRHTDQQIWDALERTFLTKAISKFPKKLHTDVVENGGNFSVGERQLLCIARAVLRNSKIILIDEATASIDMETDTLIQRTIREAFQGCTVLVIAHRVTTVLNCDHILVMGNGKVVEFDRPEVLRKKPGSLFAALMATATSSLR

Regarding `O=c1[nH]c(=O)n([C@H]2C[C@H](O)[C@@H](COP(=O)(O)O)O2)cc1F`, the Activity entry was “substrate []”.

The values are drawn from ChEMBL document CHEMBL2073741, “MRP8, ATP-binding cassette C11 (ABCC11), is a cyclic nucleotide efflux pump and a resistance factor for fluoropyrimidines 2',3'-dideoxycytidine and 9'-(2'-phosphonylmethoxyethyl)adenine” (J Biol Chem, 2003).
